{
  "source": "patent US20250040554A1",
  "about": "“NEW USES OF PHENMEDIPHAM AND HERBICIDAL COMBINATIONS COMPRISING PHENMEDIPHAM” (BAYER AKTIENGESELLSCHAFT, priority 2021, published 2025)",
  "assay_type_in_all_cases": "in vivo",
  "key": {"AMAVI=Amaranthus viridis": {"system": "AMAVI=Amaranthus viridis", "experiment": "Weed control field trial AMAVI", "source_text": "(§1) The respective (combinations of) materials were applied to weed plants in the greenhouse or in the field at the respective growth stage indicated hereinafter for the different weed species mentioned below. The respective (combinations of) active ingredients were also applied to corn, cotton and soybean crop plants, and the selectivity (damage) in these crop plants rated (assessed).\n(§2) Visual scoring of the damage to the trial plants took place after the time mentioned in the respective Table—indicated in number of Days After Application (DAA). Damage and development of all above-ground parts of the respective plants was recorded. Visual rating was done on a percentage scale in relation to the untreated control (100%=all plants dead; 50%=green plant biomass reduced by 50%, and 0%=no discernible difference=like control plot).\n(§3) The trials in the greenhouse were sprayed with an application volume of 300 L/ha with an automated track sprayer. The plots in the field were sprayed with an application volume of 140 L/ha with a hand held spray boom.\n(§4) wherein • A, B=respective value in percent of active ingredient A at a dose rate of a g/ha, ingredient B at a dose rate of b g/ha • E^C=Expected value according to Colby (S. R. Colby; Weeds 15 (1967), 20-22) in % at a dose rate of a+b, each in g/ha • Δ=Difference (in %) between measured value E and expected value E^C (%) (measured value minus expected value)\n(§5) The growth stages of the different weed species are indicated according to the BBCH monograph “Growth stages of mono- and dicotyledonous plants”, 2nd edition, 2001, ed. Uwe Meier, Federal Biological Research Centre for Agriculture and Forestry (Biologische Bundesanstalt für Land und Forstwirtschaft).\n(§6) After the harmful plants had emerged, they were treated, at the respective growth stage indicated, with the respective materials as indicated at a water application rate of 140 L/ha.\n(§7) After the treatment (21 or 35 days after application of the respective material), the herbicidal activity of respective material was scored visually at the same time by comparing the differently treated plots with the untreated control plots. The score figures of the different plots were averaged.\n(§8) The dose rates of herbicidal ingredients used in each case are indicated for the respective active ingredient and refer to the amount of active ingredient per hectare (g/ha).\n(§9) The weed control activity of different (combinations of) herbicidal active ingredients was investigated in field trials for the following weed species: • AMAVI=Amaranthus viridis • IPOAO=Ipomoea aristolochiaefolia • EPHHL=Euphorbia heterophylla • BIDPI=Bidens pilosa • BRADC=Brachiaria decumbens • ELEIN=Eleusine indica • CCHEC=Cenchrus echinatus\n(§10) The growth stage of AMAVI was BBCH 13, the growth stage of IPOAO was BBCH 15, the growth stage of EPHHL was BBCH 13, the growth stage of BIDPI was BBCH 14, the growth stage of BRADC was BBCH 23, the growth stage of ELEIN was BBCH 11 and the growth stage of CCHEC was BBCH 12 at the time of application of the respective material.\n(§11) Phenmedipham and Mesotrione were applied at varying application rates (Dose Rate) to the different species of weed plants. The results are shown in Tables 3a to 3e as the % control when assessed 21 and 35 days after application (DAA), respectively.\n(§12) In all the trials of Tables 3a to 3e Mero® (rapeseed oil methyl ester) was added to the respective spray mixture in an amount corresponding to 1 L/ha for PMP, 1 L/ha for MST, and 2 L/ha for mixtures of PMP+MST."}, "BIDPI=Bidens pilosa": {"system": "BIDPI=Bidens pilosa", "experiment": "Weed control field trial BIDPI", "source_text": "as §1, §2, §3, §4, §5, §6, §7, §8, §9, §10, §11, §12"}, "[1]": {"system": "BRADC=Brachiaria decumbens", "experiment": "Weed control field trial BRADC", "source_text": "as §1, §2, §3, §4, §5, §6, §7, §8, §9, §10, §11, §12"}, "PANRA=Panicum ramosum": {"system": "PANRA=Panicum ramosum", "experiment": "Weed control field trial PANRA", "conditions": "15 DAA", "source_text": "as §1, §2, §4\nAfter the harmful plants had emerged, they were treated, at the respective growth stage indicated, with the respective materials as indicated at a water application rate of 187 L/ha.\nAfter the treatment (15 days after the treatment), the herbicidal activity of respective material was scored visually at the same time by comparing the differently treated plots with the untreated control plots. The score figures of the different plots were averaged.\nas §8\nThe weed control activity of different (combinations of) herbicidal active ingredients was investigated in field trials for the following weed species: • AMARE=Amaranthus retroflexus • KCHSC=Kochia scoparia • PANRA=Panicum ramosum\nThe growth stage of AMARE was BBCH 19, the growth stage of KCHSC was BBCH 19 and the growth stage of PANRA was BBCH 22 at the time of application of the respective material.\nPhenmedipham and the respective aroylcyclohexanedione herbicide were applied at varying application rates (Dose Rate) to the different species of weed plants. The results are shown in Tables 4a to 4d as the % control when assessed 15 days after application (DAA), respectively.\nIn all the trials of Tables 4a to 4d Mero® (rapeseed oil methyl ester) was added to the respective spray mixture in an amount corresponding to 1 L/ha for PMP, 1 L/ha for the respective aroylcyclohexanedione herbicide, and 2 L/ha for mixtures of PMP+the respective aroylcyclohexanedione herbicide."}, "corn (Zea mays, ZEAMX)": {"system": "corn (Zea mays, ZEAMX)", "experiment": "Field selectivity trial corn", "conditions": "35 DAA", "source_text": "as §1, §2, §3\nPhenmedipham and combinations of phenmedipham and mesotrione were applied at varying application rates (Dose Rate) to the crop plants of non-traited soybean (Glycine max, GLXMA) and corn (Zea mays, ZEAMX). The results are shown in Table 5 as the % damage when assessed 35 days after application (DAA), respectively.\nIn all the selectivity trials of Table 5 the adjuvant Mero® (rapeseed oil methyl ester) was added to the respective spray mixture in an amount corresponding to 1 L/ha for PMP, 1 L/ha for MST, and 2 L/ha for mixtures of PMP+MST.\nThe herbicidal effects observed for the herbicide(s) are indicated in % activity against the respective weed. The % damage (injury) indicated refers to the maximum damage observed."}},
  "data": [
    {"smiles": "CS(=O)(=O)c1ccc(C(=O)C2C(=O)CCCC2=O)c([N+](=O)[O-])c1", "note": "[MST, 2-[4-(methylsulfonyl)-2-nitrobenzoyl]cyclohexane-1,3-dione]", "values": [
      {"measurement": "% control AMAVI", "setting": "AMAVI=Amaranthus viridis; 25 g/ha, 21 DAA", "value": 10, "unit": "%"},
      {"measurement": "% control AMAVI", "setting": "AMAVI=Amaranthus viridis; 25 g/ha, 35 DAA", "value": 10, "unit": "%"},
      {"measurement": "% control AMAVI", "setting": "AMAVI=Amaranthus viridis; 50 g/ha, 21 DAA", "value": 10, "unit": "%"},
      {"measurement": "% control AMAVI", "setting": "AMAVI=Amaranthus viridis; 50 g/ha, 35 DAA", "value": 10, "unit": "%"},
      {"measurement": "% control BIDPI", "setting": "BIDPI=Bidens pilosa; 25 g/ha, 21 DAA", "value": 80, "unit": "%"},
      {"measurement": "% control BIDPI", "setting": "BIDPI=Bidens pilosa; 25 g/ha, 35 DAA", "value": 80, "unit": "%"},
      {"measurement": "% control BIDPI", "setting": "BIDPI=Bidens pilosa; 50 g/ha, 21 DAA", "value": 80, "unit": "%"},
      {"measurement": "% control BIDPI", "setting": "BIDPI=Bidens pilosa; 50 g/ha, 35 DAA", "value": 80, "unit": "%"},
      {"measurement": "% control BRADC", "setting": "[1]; 25 g/ha, 21 DAA", "value": 0, "unit": "%"},
      {"measurement": "% control BRADC", "setting": "[1]; 25 g/ha, 35 DAA", "value": 0, "unit": "%"},
      {"measurement": "% control BRADC", "setting": "[1]; 50 g/ha, 21 DAA", "value": 17, "unit": "%"},
      {"measurement": "% control BRADC", "setting": "[1]; 50 g/ha, 35 DAA", "value": 13, "unit": "%"},
      {"measurement": "% control PANRA", "setting": "PANRA=Panicum ramosum; 20 g/ha", "value": 15, "unit": "%"},
      {"measurement": "maximum damage ZEAMX", "setting": "corn (Zea mays, ZEAMX); 25 g/ha", "value": 0, "unit": "%"},
      {"measurement": "maximum damage ZEAMX", "setting": "corn (Zea mays, ZEAMX); 50 g/ha", "value": 0, "unit": "%"}
    ]},
    {"smiles": "COC(=O)Nc1cccc(OC(=O)Nc2cccc(C)c2)c1", "note": "[PMP, 3-[(methoxyformyl)amino]phenyl (3-methylphenyl)carbamate]", "values": [
      {"measurement": "% control AMAVI", "setting": "AMAVI=Amaranthus viridis; 75 g/ha, 21 DAA", "value": 0, "unit": "%"},
      {"measurement": "% control AMAVI", "setting": "AMAVI=Amaranthus viridis; 75 g/ha, 35 DAA", "value": 0, "unit": "%"},
      {"measurement": "% control AMAVI", "setting": "AMAVI=Amaranthus viridis; 100 g/ha, 21 DAA", "value": 0, "unit": "%"},
      {"measurement": "% control AMAVI", "setting": "AMAVI=Amaranthus viridis; 100 g/ha, 35 DAA", "value": 0, "unit": "%"},
      {"measurement": "% control AMAVI", "setting": "AMAVI=Amaranthus viridis; 125 g/ha, 21 DAA", "value": 0, "unit": "%"},
      {"measurement": "% control AMAVI", "setting": "AMAVI=Amaranthus viridis; 125 g/ha, 35 DAA", "value": 0, "unit": "%"},
      {"measurement": "% control AMAVI", "setting": "AMAVI=Amaranthus viridis; 250 g/ha, 21 DAA", "value": 0, "unit": "%"},
      {"measurement": "% control AMAVI", "setting": "AMAVI=Amaranthus viridis; 250 g/ha, 35 DAA", "value": 0, "unit": "%"},
      {"measurement": "% control BIDPI", "setting": "BIDPI=Bidens pilosa; 75 g/ha, 21 DAA", "value": 0, "unit": "%"},
      {"measurement": "% control BIDPI", "setting": "BIDPI=Bidens pilosa; 75 g/ha, 35 DAA", "value": 0, "unit": "%"},
      {"measurement": "% control BIDPI", "setting": "BIDPI=Bidens pilosa; 100 g/ha, 21 DAA", "value": 0, "unit": "%"},
      {"measurement": "% control BIDPI", "setting": "BIDPI=Bidens pilosa; 100 g/ha, 35 DAA", "value": 0, "unit": "%"},
      {"measurement": "% control BIDPI", "setting": "BIDPI=Bidens pilosa; 125 g/ha, 21 DAA", "value": 0, "unit": "%"},
      {"measurement": "% control BIDPI", "setting": "BIDPI=Bidens pilosa; 125 g/ha, 35 DAA", "value": 0, "unit": "%"},
      {"measurement": "% control BIDPI", "setting": "BIDPI=Bidens pilosa; 250 g/ha, 21 DAA", "value": 0, "unit": "%"},
      {"measurement": "% control BIDPI", "setting": "BIDPI=Bidens pilosa; 250 g/ha, 35 DAA", "value": 0, "unit": "%"},
      {"measurement": "% control BRADC", "setting": "[1]; 75 g/ha, 21 DAA", "value": 0, "unit": "%"},
      {"measurement": "% control BRADC", "setting": "[1]; 75 g/ha, 35 DAA", "value": 0, "unit": "%"},
      {"measurement": "% control BRADC", "setting": "[1]; 100 g/ha, 21 DAA", "value": 0, "unit": "%"},
      {"measurement": "% control BRADC", "setting": "[1]; 100 g/ha, 35 DAA", "value": 0, "unit": "%"},
      {"measurement": "% control BRADC", "setting": "[1]; 125 g/ha, 21 DAA", "value": 0, "unit": "%"},
      {"measurement": "% control BRADC", "setting": "[1]; 125 g/ha, 35 DAA", "value": 0, "unit": "%"},
      {"measurement": "% control BRADC", "setting": "[1]; 250 g/ha, 21 DAA", "value": 0, "unit": "%"},
      {"measurement": "% control BRADC", "setting": "[1]; 250 g/ha, 35 DAA", "value": 0, "unit": "%"},
      {"measurement": "% control PANRA", "setting": "PANRA=Panicum ramosum; 150 g/ha", "value": 0, "unit": "%"},
      {"measurement": "% control PANRA", "setting": "PANRA=Panicum ramosum; 300 g/ha", "value": 5, "unit": "%"},
      {"measurement": "maximum damage ZEAMX", "setting": "corn (Zea mays, ZEAMX); 75 g/ha", "value": 6, "unit": "%"},
      {"measurement": "maximum damage ZEAMX", "setting": "corn (Zea mays, ZEAMX); 125 g/ha", "value": 6, "unit": "%"},
      {"measurement": "maximum damage ZEAMX", "setting": "corn (Zea mays, ZEAMX); 250 g/ha", "value": 6, "unit": "%"}
    ]}
  ]
}
